From PubChem BioAssay (NCI)
Values joined by “and” are separate entries in the source; they are usually repeats but may differ in a detail not shown here. Equal values may be shown once.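 How tested: cells in 96-well plates exposed to compound for 48 hours at five concentrations. Here, GI50 denotes the concentration required for 50% inhibition of growth. TGI: concentration producing complete growth inhibition.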

Tested on: MDA-MB-468 breast
Experiment: NCI tumour cell line growth inhibition, 48 h

Row | Compound | GI50 | TGI
1 | O=c1cc(-c2ccccc2)[nH]c2c1CCCC2 | 1570 nM | 4990 nM
2 | CC(C)[P+](c1ccccc1)(c1ccccc1)c1ccccc1 | 1120 nM | 10700 nM
3 | COC(=O)CCC(=O)NC1=C(Nc2ccccc2)C(=O)c2ccccc2C1=O | 3040 nM | 10500 nM
4 | NC1=NC(SCc2ccccc2CCl)c2ncn(Cc3ccccc3CCl)c2N1 (stereo unspecified) | 1710 nM | 3720 nM
5 | CCN1CCN(c2cc(C(=O)Nc3cccc(Nc4ccc5c(OC)cccc5n4)c3)cc(C(F)(F)F)c2)CC1 | 749 nM | 4050 nM
6 | COc1ccc(Nc2ncnc3ccc(-c4cncc(NS(C)(=O)=O)c4)cc23)cc1Cl | 785 nM | 3100 nM
7 | O=C1NC(=O)C(=Cc2cn(Cc3ccccc3)c3ccccc23)C(=O)N1 | 142 nM | 390 nM
8 | Nc1c(C(=O)c2cccc(C(O)CO)c2)cnn1-c1ccc(F)cc1 (stereo unspecified) | > 25000 nM | > 25000 nM
9 | CN(C)CCN1C(=O)c2cccc3c(/C=C/CN4C(=O)c5cccc6cccc(c56)C4=O)ccc(c23)C1=O | 14000 nM | 34300 nM
10 | CC(=O)c1c[nH]c2ccc(-c3ccnc(Nc4ccc(NC(=O)C5CCCC5)c(CN5CCOCC5)c4)n3)cc12 | 21.9 nM | 77.4 nM
11 | CC(C)C[C@H](NC(=O)Cn1cccc(CNC(=O)c2ccccc2)c1=O)B(O)O | 139 nM | 716 nM
12 | Cc1nn(C)c2ncnc(N/N=C/c3cccc(O)c3O)c12 | 2170 nM | 6530 nM
13 | CCN(CC)CCCNCc1cc(-c2ccccc2)nc2cc(Cl)ccc12 | 1930 nM | 3920 nM
14 | O=C1C(N2CCN(CCOCCO)CC2)=C(Cl)C(=O)c2ncccc21 | 19300 nM | 39300 nM
15 | COc1cc(F)c(F)cc1C(=O)c1cnc(NC2CCN(S(C)(=O)=O)CC2)nc1N | 3650 nM | 10800 nM
16 | O=C1NC(=O)C(c2cccc(Cl)c2)=C1Nc1ccc(Cl)c(C(=O)O)c1 | > 25000 nM | > 25000 nM

Row | Compound | GI50 | TGI
17 | Nc1nc(Cl)nc2c1ncn2C1OC(CO)C(O)C1F (stereo unspecified) | 285 nM | 891 nM
18 | O=C(O)COc1ccc(OCC(=O)O)cc1 | 326 nM | 2090 nM
19 | CN1CCN(CCCOc2ccc3nc(Nc4ccc(F)c(F)c4)ccc3c2)CC1 | 1370 nM | 4360 nM
20 | Cc1c(Nc2nccc3cc(CN4CC[C@@H](O)C4)cnc23)cccc1-c1cccc(-c2nc3cc(CN4CC[C@@H](C(=O)O)C4)cc(C#N)c3o2)c1C | 11200 nM | 35200 nM
21 | CN1CCN(Cc2ccc(NC(=O)c3cncc(C#Cc4cnc5ccc(NC6CCOCC6)nn45)c3)cc2C(F)(F)F)CC1 | 33.8 nM and 19.6 nM | 222 nM and 67.2 nM
22 | O=C(Nc1ccc(-n2cc(-c3ccncc3)c(-c3ccc(O)c(Cl)c3)n2)cc1)c1ccc(Cl)c(C(F)(F)F)c1 | 2590 nM | 48400 nM
23 | Cc1cc(=O)[nH]c(N/N=C/c2ccccc2O)n1 | 3030 nM | 46900 nM
24 | CN1CCN(C(=O)c2ccc(NC(=O)Nc3ccc(-c4nc(N5CCOCC5)c5cccn5n4)cc3)cc2)CC1 | 21 nM | 77 nM
25 | COC1=C(OC)C(=O)C(C/C=C(\C)CC/C=C(\C)CC/C=C(\C)CC/C=C(\C)CC/C=C(\C)CC/C=C(\C)CC/C=C(\C)CC/C=C(\C)CC/C=C(\C)CCC=C(C)C)=C(C)C1=O | > 100000 nM | > 100000 nM
26 | COc1cc2nc(N3CCC[C@H](NC4=CC(=O)c5ccccc5C4=O)C3)nc(N)c2cc1OC | 1790 nM | 3530 nM
27 | COc1ccc(C2NN=C3c4ccccc4CCC32)cc1 (stereo unspecified) |  | 41.6 nM
28 | CN1CCN(Cc2ccc(NC(=O)c3[nH]ncc3Nc3ncnc4[nH]ccc34)cc2)CC1 | 247 nM | 562 nM
29 | O=C1OCC2=C1C(c1cccc(C(F)(F)F)c1)c1cc3c(cc1N2CCO)OCCO3 (stereo unspecified) | 1410 nM | > 33300 nM
30 | COc1ccc2nc(C)cc(Sc3nc4ccccc4s3)c2c1 | 2200 nM | 11400 nM
31 | CC1=C(CO)C(=O)O[C@@H]([C@@H](C)[C@H]2CC[C@H]3[C@@H]4C[C@H]5O[C@]56[C@@H](O)C=CC(=O)[C@]6(C)[C@H]4CC[C@]23C)C1 | 278 nM | 1210 nM
